Reference: patent US9714247B2, “Multiple kinase pathway inhibitors” (Mannkind Corporation, priority 2012, dated 2017)
Where two headings read alike, the source gives them in different places.

Columns and labels:
Src [1] = biological target: T1, Src (Homo sapiens (Human), UniProt P12931); experiment: biochemical
DoHH2 = experiment: CellTiter-Glo proliferation/viability assay; type: cell-based, human; conditions: Homo sapiens, DOHH-2
Ramos = experiment: CellTiter-Glo proliferation/viability assay; type: cell-based, human; conditions: Homo sapiens, Ramos, read-out: Ramos EC50
Lyn [2] = biological target: T2, Lyn (Homo sapiens (Human), UniProt P07948); experiment: biochemical
DoHH2 cells = conditions: treated 24 hours
BTK = BTK (Homo sapiens (Human), UniProt Q06187)
Lyn [3] = biological target: T2, Lyn; conditions: read-out: Lyn IC50
Src [4] = biological target: T1, Src; conditions: read-out: Src IC50
[5] = system: PLCγ2 phosphorylation in Ramos cells; experiment: PLCγ2 phosphorylation by flow cytometry; type: cell-based, human; conditions: Homo sapiens, flow cytometry, anti-phospho PLCγ2 (Tyr1217), four concentrations, read-out: Inhibition of phosphorylation of PLC-γ2 EC50
Protocol: Ramos cells were cultured in RPMI 1640 media with 10% FBS and were starved overnight (18 h) in 1% FBS containing media and on the next day pretreated with inhibitor for 2 h before stimulation. Cells were stimulated to induce BTK network dependent signal transduction pathways using mouse anti-human IgM (final concentration 10 ug/ml; Invitrogen) antibodies and 3.3 mM H2O2 mixture for 2 minutes followed by F(Ab) fragment that cross-linked the anti-IgM antibody (final concentration 10 ug/ml), and 3.3 mM H2O2 for 8 minutes. Cell lysates were prepared in lysis buffer containing protease and phosphatase inhibitors, quantified using the BCA protein assay kit (Pierce) and used for Western blotting. Antibodies specifically targeted to the molecules of interest, PLCγ2 phosphorylated at Tyr1217 and total PLCγ2, (Cell Signaling Technology) were used in a standard Western blotting procedure.
PLCγ2 phosphorylation was also assessed by flow cytometry. Cells were similarly stimulated and following stimulation, Cytofix buffer (Becton Dickinson) was added, cells were centrifuged and the cell pellets incubated on ice with Phosflow perm buffer III (Becton Dickinson). These cell pellets were washed with Perm/Wash buffer (Becton Dickinson); resuspended and labeled for flow cytometry analysis in a staining mixture containing Perm/Wash buffer and PE-labeled anti-phosphoPCLγa2 (Tyr1217) antibody (Becton Dickinson). The samples were washed with Perm/Wash buffer and analyzed on a FACS Calibur flow cytometer using CellQuest Pro software. As mentioned for the Western blot experiments, phosphorylation of PLCγ2 at Tyr1217 along with Tyr753, Tyr759 and Tyr1197 is correlated with increased PLCγ2 activity. The readout for BTK network signaling was inhibition of phosphorylation of PLCγ2. Cells were gated to exclude dead or dying cells. Fluorescence signals from the antibody staining were plotted in logarithmic units and data was analyzed using Cellquest Pro software. […] An ED50 was calculated based on the geometric mean of fluorescence intensity observed for treatment for four different concentrations of the inhibitors (see Table 7 and FIG. 6). […] Thus treatment with amino naphthyridinones inhibits PLCγ2 phosphorylation consistent with inhibition of BTK and/or LYN activity.
Following stimulation, cells were prepared for analysis by flow cytometry as described above. In short, cells were fixed and permeabilized using Cytofix buffer, Phosflow perm buffer and Perm/Wash buffer (Becton Dickinson). The cells were stained with PE-labeled anti-phosphoPCLγ2 (Tyr759) antibody (Becton Dickinson) and analyzed on a FACS Calibur flow cytometer using CellQuest Pro software. […] Thus aminonaphthyridinones are useful for the indirect inhibition of PLCγ2 phosphorylation.

[6] = Table 4, DoHH2 cells, read-out: EC50 (Proliferation)

T2 sequence (P07948 whole entry): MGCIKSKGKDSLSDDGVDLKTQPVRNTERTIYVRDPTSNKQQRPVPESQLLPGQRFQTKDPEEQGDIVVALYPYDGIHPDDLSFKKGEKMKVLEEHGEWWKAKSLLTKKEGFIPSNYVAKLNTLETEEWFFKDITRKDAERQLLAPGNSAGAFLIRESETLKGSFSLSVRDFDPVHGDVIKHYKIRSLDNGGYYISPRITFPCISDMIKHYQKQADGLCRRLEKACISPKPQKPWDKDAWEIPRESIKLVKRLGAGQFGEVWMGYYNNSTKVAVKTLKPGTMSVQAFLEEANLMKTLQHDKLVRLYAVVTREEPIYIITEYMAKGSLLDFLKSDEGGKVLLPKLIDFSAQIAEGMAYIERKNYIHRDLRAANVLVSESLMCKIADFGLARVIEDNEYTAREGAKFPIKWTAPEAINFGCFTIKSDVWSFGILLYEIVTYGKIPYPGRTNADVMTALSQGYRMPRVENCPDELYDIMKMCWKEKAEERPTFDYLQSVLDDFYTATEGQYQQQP
T1 sequence (P12931 whole entry, looked up): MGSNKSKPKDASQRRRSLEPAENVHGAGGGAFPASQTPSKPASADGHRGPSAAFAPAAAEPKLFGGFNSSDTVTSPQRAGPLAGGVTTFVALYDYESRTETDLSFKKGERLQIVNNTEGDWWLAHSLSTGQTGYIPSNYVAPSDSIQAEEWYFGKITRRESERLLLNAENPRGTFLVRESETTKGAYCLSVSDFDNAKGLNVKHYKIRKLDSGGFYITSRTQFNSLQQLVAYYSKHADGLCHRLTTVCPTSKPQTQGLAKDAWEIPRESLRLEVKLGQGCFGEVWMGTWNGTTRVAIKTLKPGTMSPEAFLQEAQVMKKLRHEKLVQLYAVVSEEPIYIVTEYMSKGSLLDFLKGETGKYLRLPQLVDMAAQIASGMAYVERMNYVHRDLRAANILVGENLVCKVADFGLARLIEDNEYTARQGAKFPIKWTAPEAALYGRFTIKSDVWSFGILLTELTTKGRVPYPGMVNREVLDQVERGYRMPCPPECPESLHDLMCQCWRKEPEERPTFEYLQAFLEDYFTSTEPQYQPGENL
Chain of BTK (Q06187 whole entry): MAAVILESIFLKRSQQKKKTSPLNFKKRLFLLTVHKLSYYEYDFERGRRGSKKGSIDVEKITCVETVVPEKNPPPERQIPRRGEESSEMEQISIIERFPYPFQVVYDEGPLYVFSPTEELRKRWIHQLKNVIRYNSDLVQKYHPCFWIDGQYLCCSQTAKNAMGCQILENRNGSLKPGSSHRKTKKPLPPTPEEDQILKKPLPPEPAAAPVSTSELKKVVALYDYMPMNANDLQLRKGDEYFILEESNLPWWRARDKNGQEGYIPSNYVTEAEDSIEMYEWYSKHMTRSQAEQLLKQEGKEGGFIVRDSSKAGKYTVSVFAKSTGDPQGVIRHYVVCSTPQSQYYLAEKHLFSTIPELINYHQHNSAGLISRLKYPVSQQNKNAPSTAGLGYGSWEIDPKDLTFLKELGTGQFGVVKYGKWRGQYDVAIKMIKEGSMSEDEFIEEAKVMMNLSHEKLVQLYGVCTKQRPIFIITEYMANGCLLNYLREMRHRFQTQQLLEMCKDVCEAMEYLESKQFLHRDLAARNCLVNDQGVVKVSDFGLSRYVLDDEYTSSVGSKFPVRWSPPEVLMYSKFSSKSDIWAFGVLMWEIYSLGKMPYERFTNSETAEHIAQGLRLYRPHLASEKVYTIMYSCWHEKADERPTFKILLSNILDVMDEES

Structure (SMILES)	IC50 (Src [1])	EC50 (DoHH2; 48 hrs, read-out: DoHH2 EC50)	EC50 (DoHH2; [6])	EC50 (Ramos; 48 h)	IC50 (Lyn [2])	Effect on Cell Cycle (DoHH2 cells)	IC50 (BTK)	IC50 (Lyn [3])	IC50 (Src [4])	EC50 (Ramos; 48 hrs)	IC50 (BTK; read-out: BTK IC50)	EC50 [5]
CCn1c(=O)c(-c2ccccc2)cc2cnc(Nc3ncc(C)s3)cc21 [Compound 8, 1-Ethyl-7-(5-methyl-thiazol-2-ylamino)-3-phenyl-1H-[1,6]naphthyridin-2-one]	1000 to 5000 nM	> 10000 nM	> 10000 nM	> 10000 nM	100 to 1000 nM	No Arrest	1000 to 5000 nM	–	–	–	–	–
CCN(CC)CCOc1ccc(Nc2cc3c(cn2)cc(-c2ccccc2)c(=O)n3C2CCOC2)nc1 (stereo not drawn) [Compound 17, 7-((5-(2-(diethylamino)ethoxy)pyridin-2-yl)amino)-3-phenyl-1-(tetrahydrofuran-3-yl)-1,6-naphthyridin-2(1H)-one]	100 to 1000 nM	< 1000 nM	< 1000 nM	1000 to 10000 nM	100 to 1000 nM	G1 Arrest	1000 to 5000 nM	–	–	–	–	–
CCN(CC)CCOc1ccc(Nc2cc3c(cn2)cc(C(C)C)c(=O)n3-c2ccccc2)nc1 [Compound 18, 7-[5-(2-Diethylamino-ethoxy)-pyridin-2-ylamino]-3-isopropyl-1-phenyl-1H-[1,6]naphthyridin-2-one]	100 to 1000 nM	< 1000 nM	< 1000 nM	> 10000 nM	100 to 1000 nM	–	–	100 to 1000 nM	–	–	–	–
CCc1cc2cnc(Nc3ccc(C)cn3)cc2n(CC)c1=O [Compound 19, 1,3-Diethyl-7-(5-methyl-pyridin-2-ylamino)-1H-[1,6]naphthyridin-2-one]	–	1000 to 10000 nM	1000 to 10000 nM	–	–	No Arrest	100 to 1000 nM	> 5000 nM	> 5000 nM	1000 to 10000 nM	–	–
CCn1c(=O)c(-c2ccccc2)cc2cnc(Nc3ccc(F)cn3)cc21 [Compound 28, 1-Ethyl-7-(5-fluoro-pyridin-2-ylamino)-3-phenyl-1H-[1,6]naphthyridin-2-one]	–	1000 to 10000 nM	1000 to 10000 nM	–	–	No Arrest	–	> 5000 nM	> 5000 nM	1000 to 10000 nM	> 5000 nM	–
CCn1c(=O)c(-c2ccccc2F)cc2cnc(Nc3ccc(C)cn3)cc21 [Compound 35, 1-ethyl-3-(2-fluorophenyl)-7-(5-methylpyridin-2-ylamino)-1,6-naphthyridin-2(1H)-one]	100 to 1000 nM	< 1000 nM	< 1000 nM	> 10000 nM	–	G1 Arrest	100 to 1000 nM	< 100 nM	–	–	–	–
CCn1c(=O)c(-c2ccccc2)cc2cnc(Nc3nccs3)cc21 [Compound 42, 1-Ethyl-3-phenyl-7-(thiazol-2-ylamino)-1H-[1,6]naphthyridin-2-one]	1000 to 5000 nM	< 1000 nM	< 1000 nM	–	–	G2 Arrest	1000 to 5000 nM	> 5000 nM	–	< 1000 nM	–	–
CCn1c(=O)c(-c2ccccc2C)cc2cnc(Nc3ccc(C)cn3)cc21 [Compound 45, 1-ethyl-7-(5-methylpyr—idin-2-ylamino)-3-o-tolyl-1,6-naphthyridin-2(1H)-one]	100 to 1000 nM	> 10000 nM	–	> 10000 nM	100 to 1000 nM	–	100 to 1000 nM	100 to 1000 nM	–	–	100 to 1000 nM	–
CCN(CC)CCOc1ccc(Nc2cc3c(cn2)cc(C(C)C)c(=O)n3C2CCC2)nc1 [Compound 47, 1-Cyclobutyl-7-[5-(2-diethylamino-ethoxy)-pyridin-2-ylamino]-3-isopropyl-1H-[1,6]naphthyridin-2-one]	–	–	–	–	–	G1 Arrest	–	–	–	–	–	–
CCn1c(=O)c(-c2ccccc2)cc2cnc(Nc3ccc(O)cn3)cc21 [Compound 52, 1-Ethyl-7-(5-hydroxy-pyridin-2-ylamino)-3-phenyl-H-[1,6]naphthyridin-2-one]	–	1000 to 10000 nM	1000 to 10000 nM	–	100 to 1000 nM	G1 Arrest	100 to 1000 nM	100 to 1000 nM	< 100 nM	> 10000 nM	100 to 1000 nM	–
CCn1c(=O)c(-c2ccccc2)cc2cnc(Nc3ccc(NCCO)cn3)cc21 [Compound 66, 1-Ethyl-7-[5-(2-hydroxy-ethylamino)-pyridin-2-ylamino]-3-phenyl-1H-[1,6]naphthyridin-2-one]	–	< 1000 nM	< 1000 nM	1000 to 10000 nM	–	G1 Arrest	100 to 1000 nM	< 100 nM	< 100 nM	–	–	–
CCn1c(=O)c(-c2ccccc2)cc2cnc(Nc3ccc(NCCN(C)C)cn3)cc21 [Compound 67, 7-[5-(2-Dimethylamino-ethylamino)-pyridin-2-ylamino]-1-ethyl-3-phenyl-1H-[1,6]naphthyridin-2-one]	1000 to 5000 nM	< 1000 nM	< 1000 nM	–	–	G1 Arrest	–	< 100 nM	–	1000 to 10000 nM	–	–
CCn1c(=O)c(C(C)(C)O)cc2cnc(Nc3ccc(C)cn3)cc21 [Compound 69]	–	> 10000 nM	> 10000 nM	–	–	No Arrest	–	> 5000 nM	< 100 nM	> 10000 nM	> 5000 nM	–
CCn1c(=O)c(-c2ccccc2F)cc2cnc(Nc3ccc(F)cn3)cc21 [Compound 72, 1-ethyl-3-(2-fluorophenyl)-7-(5-fluoropyridin-2-ylamino)-1,6-naphthyridin-2 (1H)-one]	1000 to 5000 nM	1000 to 10000 nM	1000 to 10000 nM	> 10000 nM	100 to 1000 nM	G1 Arrest	1000 to 5000 nM	–	–	–	–	–
O=c1c(-c2c(F)cccc2F)cc2cnc(Nc3ccc(F)cn3)cc2n1C1CCCC1 [Compound 77, 1-cyclopentyl-3-(2,6-difluorophenyl)-7-((5-fluoropyridin-2-yl)amino)-1,6-naphthyridin-2(1H)-one]	–	< 1000 nM	< 1000 nM	–	–	G1 Arrest	–	< 100 nM	< 100 nM	> 10000 nM	–	–
CN1CCC(n2c(=O)c(-c3c(F)cccc3F)cc3cnc(Nc4ccc(F)cn4)cc32)CC1 [Compound 79, 3-(2,6-difluorophenyl)-7-((5-fluoropyridin-2-yl)amino)-1-(1-methylpiperidin-4-yl)-1,6-naphthyridin-2(1H)-one]	–	< 1000 nM	< 1000 nM	–	–	G1 Arrest	–	< 100 nM	2580 nM	1000 to 10000 nM	–	–
O=c1c(-c2c(F)cccc2F)cc2cnc(Nc3ccc(F)cn3)cc2n1C1CCOC1 (stereo not drawn) [Compound 83, 3-(2,6-difluorophenyl)-7-((5-fluoropyridin-2-yl)amino)-1-(tetrahydrofuran-3-yl)-1,6-naphthyridin-2(1H)-one]	–	< 1000 nM	–	1000 to 10000 nM	–	–	–	< 100 nM	< 100 nM	–	–	450 nM
CCn1c(=O)c(I)cc2cnc(Nc3ccc(C)cn3)cc21 [Compound 89]	–	< 1000 nM	< 1000 nM	–	–	G1 Arrest	–	> 5000 nM	> 5000 nM	< 1000 nM	> 5000 nM	–
NCCn1c(=O)c(-c2c(F)cccc2F)cc2cnc(Nc3ccc(F)cn3)cc21 [Compound 127, 1-(2-aminoethyl)-3-(2,6-difluorophenyl)-7-((5-fluoropyridin-2-yl)amino)-1,6-naphthyridin-2(1H)-one]	100 to 1000 nM	1000 to 10000 nM	–	–	100 to 1000 nM	–	–	–	–	> 10000 nM	< 100 nM	–
COCCn1c(=O)c(C(C)C)cc2cnc(Nc3ccc(F)cn3)cc21 [Compound 128, 7-((5-fluoropyridin-2-yl)amino)-3-isopropyl-1-(2-methoxyethyl)-1,6-naphthyridin-2(1H)-one]	1000 to 5000 nM	1000 to 10000 nM	–	–	1000 to 5000 nM	–	1000 to 5000 nM	–	–	> 10000 nM	–	–
